From patent US20220305144A1, “RADIOLIGANDS FOR IMAGING THE ID01 ENZYME” (Bristol-Myers Squibb Company, priority 2016, published 2022)
Entries after “also recorded” stand apart in the source; their conditions may differ.

Legend:
IDO1 [1] = molecular target: T1, IDO1 (Mus musculus, UniProt P28776); assay: In-vivo PET imaging in M109 xenograft mice at baseline and after treatment with an IDO1 inhibitor (Example 7); settings: 6, 60, 150 mg/kg PO once daily for 5 days
T1 construct: The M109 tumor model is generated from a murine lung carcinoma cell line and expresses high levels of IDO1; from tissue; host or cells: subcutaneous M109 (murine lung carcinoma) tumours in BALB/c mice, imaged in vivo
Procedure: All mice underwent 2 separate PET scans. The first was a baseline PET scan before treatment began and the second was a post treatment scan with either the IDO1 inhibitor or vehicle. Treatment was administered PO once daily for 5 days with the last dose administered 2 hours prior to the post-treatment PET scan. […] There were no difference in tracer uptake at baseline in the M109 tumors between any of the groups.

IDO1 [2] = molecular target: T1, IDO1; assay: In-vivo PET imaging in M109 xenograft mice after treatment with the unlabeled IDO1 inhibitor (Example 6); settings: 6, 60, 150 mg/kg PO once daily for 4 or 5 days
Procedure: Dosing and treatment was established based on known pharmacological effect and treatment was administered PO, once daily, for 4 or 5 days. All animals were received a PET scan post-treatment with the last dose of (R)—N-(4-chlorophenyl)-2-((1S,4)-4-(6-fluoroquinolin-4-yl)cyclohexyl)propanamide or vehicle administered 2 hours before PET imaging. […] The exact injected dose was calculated by subtracting the decay corrected activity of the residual in the syringe after injection from the total measured dose in the syringe prior to injection. For PET imaging, the mice were anesthetized with isoflurane and placed into a custom animal holder with capacity for 4 animals. Body temperature was maintained with a heating pad and anesthesia was maintained with 1.5% isoflurane for the duration of the imaging PET imaging was performed on a dedicated microPET® F120™ scanner and a F220™ scanner (Siemens Preclinical Solutions, Knoxville, Tenn.). A 10 minute transmission scan was performed using a ^57Co source for attenuation correction of the final PET images and followed by a 10 min static emission scan. Either before or after PET imaging a CT scan (X-SPECT, Gamma Medica) or MRI scan (Bruker) was performed for anatomical orientation during image analysis. PET images were reconstructed using a maximum a posteriori (MAP) algorithm with attenuation correction using the collected transmission images. Image analysis was performed using the image analysis software AMIDE PET images were co-registered with their corresponding CT or MRI images and regions of interest (ROIs) were manually drawn around tumor boundaries and muscle using the CT or MRI images as the anatomical guidelines. The outcome measure percentage injected dose/g tissue (% ID/g) was obtained from the ROIs volume and the calculated injected activity decay corrected to the beginning of the emission scan.

[3] = PET biodistribution in non-human primate (Example 9); format: in vivo; settings: male cynomolgus monkey, 1.2 mCi i.v., 5 full body PET scans
Procedure: A male cynomolgus monkey (3.5 kg) was anesthetized via a cocktail of 0.02 mg/kg Atropine, and 5 mg/kg Telazol, 0.01 mg/kg Buprenorphine and maintained with 1-2% isoflurane for the duration of the study. Body temperature was maintained at ˜37° C. using an external circulating water bed to prevent hypothermia during imaging. The monkey was intubated and a saphenous vein catheter was inserted to allow for radiotracer injection. […] The axial field of view in the PET system is 7.6 cm. With this limitation, images were acquired over 7 distinct bed positions to cover the full body with an overlap of 1.5 cm between beds. Prior to emission imaging a 10 minute transmission image was acquired for each bed position for attenuation correction of the final PET images, immediately following collection of the final transmission image, the bed was returned to position 1 and the radiotracer was injected via the saphenous vein catheter concurrently with the start of the first emission scan. For emission, a total of 5 full body scans were acquired, using 5 min emission acquisitions for each bed position. Images were reconstructed using a MAP algorithm with attenuation correction. Bed positions were stitched together for a full body image using a stitching software tool developed in house and PET and MRI images were co-registered using AMIDE software. The final images were visually inspected to note areas of high tracer accumulation and evaluate biodistribution and background signal.

IDO1 [4] = molecular target: T1, IDO1; assay: Comparison of tracer uptake in high (M109) and low (CT26) IDO1 expressing tumor models (Example 8); format: in vivo; settings: BALB/c mice given vehicle for 5 days, tracer i.v. 1 hour before PET, CT26 low IDO1 expression
Description: In order to compare the ability to differentiate between differences in expression levels of IDO1 we imaged an additional mouse model carrying CT26 tumors. The CT26 tumor model is generated from a murine colorectal carcinoma cell line and expresses lower levels of IDO1 than the M109 model.

[5] = listed as 18F—(R)—N-(4-chlorophenyl)-2-((1S,4S)-4-(6-fluoroquinolin-4-yl)cyclohexyl)propan
[6] = listed as [^18F](R)—N-(4-chlorophenyl)-2-((1S,4S)-4-(6-fluoroquinolin-4-yl)cyclohexyl)prop

T1 sequence (P28776 whole entry): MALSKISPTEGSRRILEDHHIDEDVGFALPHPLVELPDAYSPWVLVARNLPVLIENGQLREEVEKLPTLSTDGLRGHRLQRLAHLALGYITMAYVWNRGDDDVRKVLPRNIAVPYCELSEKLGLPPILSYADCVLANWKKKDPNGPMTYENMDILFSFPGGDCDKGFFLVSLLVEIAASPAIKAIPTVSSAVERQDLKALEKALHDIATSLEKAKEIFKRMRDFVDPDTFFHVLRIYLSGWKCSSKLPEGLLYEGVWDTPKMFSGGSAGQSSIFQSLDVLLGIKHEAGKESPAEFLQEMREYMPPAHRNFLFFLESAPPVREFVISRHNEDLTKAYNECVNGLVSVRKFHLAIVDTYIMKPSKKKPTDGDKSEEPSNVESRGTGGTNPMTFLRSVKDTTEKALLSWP

Row | Compound | Tracer uptake in muscle reference tissue, baseline vs post-treatment (IDO1 [1]) | Tracer uptake in M109 tumors after treatment, compared to vehicle group and baseline (IDO1 [1]; last dose 2 hours before post-treatment PET scan) | Tracer uptake (% ID/g) in M109 tumors compared to vehicle (IDO1 [2]; last dose 2 hours before PET, [18F] tracer i.v. 1 hour before imaging) | Tracer uptake in muscle reference tissue (IDO1 [2]; muscle used as reference region for non-specific binding) | Areas of tracer accumulation (biodistribution) [3, 5] | Background signal in the rest of the body [3, 5] | Areas of tracer accumulation (biodistribution) [3, 6] | Background signal in the rest of the body [3, 6] | Tracer uptake (% ID/g) in M109 tumors compared to CT26 tumors (IDO1 [4])
1 | C[C@@H](C(=O)Nc1ccc(Cl)cc1)C1CCC(c2ccnc3ccc(F)cc23)CC1 (stereo partly drawn) [(R)—N-(4-chlorophenyl)-2-((1S,4S)-4-(6-fluoroquinolin-4-yl)cyclohexyl)propanamide] | unaffected by treatment | dose-dependent decrease in tracer uptake; also recorded: dose-dependent displacement of the tracer | dose-dependent decrease in tracer uptake; also recorded: dose-dependent displacement of the tracer | no effect on the tracer; also recorded: no effect on the uptake in muscle tissue |  |  |  |  | 
2 | C[C@@H](C(=O)Nc1ccc(Cl)cc1)[C@H]1CC[C@@H](c2ccnc3ccc([18F])cc32)CC1 [Example 5, [^18F](R)—N-(4-chlorophenyl)-2-((1S, 4S)-4-(6-fluoroquinolin-4-yl)cyclohexyl)propanamide] |  |  |  |  | accumulated in expected clearance organs such as liver and gallbladder | little to no background | accumulated in the liver and gallbladder | minimal | higher % ID/g was observed in M109 mouse xenograft tumors compared to % ID/g in CT26 mouse xenograft tumors; also recorded: increased in M109 tumors
